{"source": "patent US5738998A", "about": "“Compositions and methods for diagnosing schizophrenia” (priority 1995, dated 1998)", "test_system": "Chinese hamster ovary cells without the D4 receptor", "assay": "[35S]GTPγS binding to G proteins in CHO cells without the D4 receptor", "type": "cell-based", "details": "CHO cells without the D4 receptor (FIG. 5B)", "from_the_text": "FIGS. 5A and 5B illustrate graphic representations of the effect of cycloleucine on spontaneous G protein binding of [^35 S]GTPγS.", "data": [{"smiles": "NC1(C(=O)O)CCCC1", "note": "[cycloleucine]", "values": [{"measurement": "spontaneous [35S]GTPγS binding", "value": "inability"}]}]}
